pIC50: −log10 of the molar value. Like-named read-outs stand apart in the source and are kept apart here.
Tests used:
CDK1/Cyclin E1 = CDK1/Cyclin E1 (Homo sapiens, UniProt P06493); experiment: NanoBRET live-cell target engagement, CDK1-NanoLuc/Cyclin E1 in HEK-293; format: binding; settings: CDK1/E1
CDK2/Cyclin E1 = CDK2/Cyclin E1 (Homo sapiens, UniProt P24941); experiment: NanoBRET live-cell target engagement, CDK2-NanoLuc/Cyclin E1 in HEK-293; format: binding; settings: CDK2/E1; for pIC50: read-out: IC50
CDK3/Cyclin E1 = CDK3/Cyclin E1 (Homo sapiens, UniProt Q00526); experiment: NanoBRET live-cell target engagement, CDK3-NanoLuc/Cyclin E1 in HEK-293; format: binding; settings: CDK3/E1
CDK4/Cyclin D1 = CDK4/Cyclin D1 (Homo sapiens, UniProt P11802); experiment: NanoBRET live-cell target engagement, NanoLuc-CDK4/Cyclin D1 in HEK-293; format: binding; settings: CDK4/D1; for pIC50: read-out: IC50
CDK5/CDK5R1 = CDK5/CDK5R1 (Homo sapiens, UniProt Q00535); experiment: NanoBRET live-cell target engagement, CDK5-NanoLuc/CDK5R1 in HEK-293; format: binding; settings: CDK5/CDK5R1
CDK6/Cyclin D1 = CDK6/Cyclin D1 (Homo sapiens, UniProt Q00534); experiment: NanoBRET live-cell target engagement, NanoLuc-CDK6/Cyclin D1 in HEK-293; format: binding; settings: CDK6/D1; for pIC50: read-out: IC50
CDK7 = CDK7 (Homo sapiens, UniProt P50613); experiment: NanoBRET live-cell target engagement, NanoLuc-CDK7 in HEK-293; format: binding; settings: CDK7; for pIC50: read-out: IC50
CDK8/Cyclin C = CDK8/Cyclin C (Homo sapiens, UniProt P49336); experiment: NanoBRET live-cell target engagement, NanoLuc-CDK8/Cyclin C in HEK-293; format: binding; settings: CDK8/C
CDK9/Cyclin K = CDK9/Cyclin K (Homo sapiens, UniProt P50750); experiment: NanoBRET live-cell target engagement, NanoLuc-CDK9/Cyclin K in HEK-293; format: binding; settings: CDK9/K
CDK11A/Cyclin L2 = target: T1, CDK11A/Cyclin L2 (Homo sapiens, UniProt Q9UQ88); experiment: NanoBRET live-cell target engagement, CDK11A-NanoLuc/Cyclin L2 in HEK-293; format: binding; settings: CDK11a/L2; for pIC50: read-out: IC50
T1 sequence (Q9UQ88 1-783): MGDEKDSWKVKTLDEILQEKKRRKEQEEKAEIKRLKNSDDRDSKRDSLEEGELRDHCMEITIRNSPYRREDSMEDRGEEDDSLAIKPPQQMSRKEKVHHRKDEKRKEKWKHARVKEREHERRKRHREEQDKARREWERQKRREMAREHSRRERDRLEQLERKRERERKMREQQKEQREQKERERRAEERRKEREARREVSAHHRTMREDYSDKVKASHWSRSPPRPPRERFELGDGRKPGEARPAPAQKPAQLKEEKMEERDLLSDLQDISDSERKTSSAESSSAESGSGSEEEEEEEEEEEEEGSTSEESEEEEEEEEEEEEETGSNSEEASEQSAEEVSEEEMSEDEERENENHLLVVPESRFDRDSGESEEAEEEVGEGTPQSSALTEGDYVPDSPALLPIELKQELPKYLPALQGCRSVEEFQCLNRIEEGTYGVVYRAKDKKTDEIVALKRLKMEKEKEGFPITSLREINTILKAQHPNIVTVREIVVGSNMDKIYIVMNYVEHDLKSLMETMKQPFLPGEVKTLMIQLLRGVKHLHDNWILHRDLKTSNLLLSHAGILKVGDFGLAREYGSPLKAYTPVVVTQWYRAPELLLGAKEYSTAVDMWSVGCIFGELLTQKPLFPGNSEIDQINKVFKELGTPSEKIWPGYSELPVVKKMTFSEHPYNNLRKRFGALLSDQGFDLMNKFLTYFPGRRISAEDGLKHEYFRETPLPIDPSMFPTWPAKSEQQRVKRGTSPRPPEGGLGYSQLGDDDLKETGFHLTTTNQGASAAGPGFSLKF

CDK11B/Cyclin L2 = CDK11B/Cyclin L2 (Homo sapiens, UniProt P21127); experiment: NanoBRET live-cell target engagement, CDK11B-NanoLuc/Cyclin L2 in HEK-293; format: binding; settings: CDK11b/L2; for pIC50: read-out: IC50
CDK14/Cyclin Y = CDK14/Cyclin Y (Homo sapiens, UniProt O94921); experiment: NanoBRET live-cell target engagement, CDK14-NanoLuc/Cyclin Y in HEK-293; format: binding; settings: CDK14/Y; for pIC50: read-out: IC50
CDK15/Cyclin Y = CDK15/Cyclin Y (Homo sapiens, UniProt Q96Q40); experiment: NanoBRET live-cell target engagement, NanoLuc-CDK15/Cyclin Y in HEK-293; format: binding
CDK16/Cyclin Y = CDK16/Cyclin Y (Homo sapiens, UniProt Q00536); experiment: NanoBRET live-cell target engagement, CDK16-NanoLuc/Cyclin Y in HEK-293; format: binding; settings: CDK16/Y; for pIC50: read-out: IC50
CDK17/Cyclin Y = CDK17/Cyclin Y (Homo sapiens, UniProt Q00537); experiment: NanoBRET live-cell target engagement, CDK17-NanoLuc/Cyclin Y in HEK-293; format: binding; settings: CDK17/Y; for pIC50: read-out: IC50
CDK18/Cyclin Y = CDK18/Cyclin Y (Homo sapiens, UniProt Q07002); experiment: NanoBRET live-cell target engagement, CDK18-NanoLuc/Cyclin Y in HEK-293; format: binding; settings: CDK18/Y; for pIC50: read-out: IC50
CDK20/Cyclin H = CDK20/Cyclin H (Homo sapiens, UniProt Q8IZL9); experiment: NanoBRET live-cell target engagement, NanoLuc-CDK20/Cyclin H in HEK-293; format: binding; settings: CDK20/H
CDK19/Cyclin C = CDK19/Cyclin C (Homo sapiens, UniProt Q9BWU1); experiment: NanoBRET live-cell target engagement, NanoLuc-CDK19/Cyclin C in HEK-293; settings: CDK19/C
CDK10/Cyclin L2 = CDK10/Cyclin L2 (Homo sapiens, UniProt Q15131); experiment: NanoBRET live-cell target engagement, CDK10-NanoLuc/Cyclin L2 in HEK-293; settings: CDK10/L2

Sequence of CDK19/Cyclin C (Q9BWU1 whole entry): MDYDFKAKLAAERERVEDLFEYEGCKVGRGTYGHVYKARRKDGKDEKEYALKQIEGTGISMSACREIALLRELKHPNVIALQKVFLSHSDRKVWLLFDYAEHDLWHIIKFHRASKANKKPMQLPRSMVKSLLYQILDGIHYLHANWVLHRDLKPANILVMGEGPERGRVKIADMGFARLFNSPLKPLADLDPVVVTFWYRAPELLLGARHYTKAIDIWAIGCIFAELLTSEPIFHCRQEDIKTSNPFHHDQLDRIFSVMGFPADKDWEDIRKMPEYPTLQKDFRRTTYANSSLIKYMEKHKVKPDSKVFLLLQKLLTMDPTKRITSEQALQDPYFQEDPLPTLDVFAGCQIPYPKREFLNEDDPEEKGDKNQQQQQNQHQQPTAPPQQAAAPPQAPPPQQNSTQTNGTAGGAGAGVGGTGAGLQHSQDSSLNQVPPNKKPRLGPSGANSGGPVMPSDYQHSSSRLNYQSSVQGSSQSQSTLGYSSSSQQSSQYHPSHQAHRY
Sequence of CDK19/Cyclin C (P24863 whole entry partner): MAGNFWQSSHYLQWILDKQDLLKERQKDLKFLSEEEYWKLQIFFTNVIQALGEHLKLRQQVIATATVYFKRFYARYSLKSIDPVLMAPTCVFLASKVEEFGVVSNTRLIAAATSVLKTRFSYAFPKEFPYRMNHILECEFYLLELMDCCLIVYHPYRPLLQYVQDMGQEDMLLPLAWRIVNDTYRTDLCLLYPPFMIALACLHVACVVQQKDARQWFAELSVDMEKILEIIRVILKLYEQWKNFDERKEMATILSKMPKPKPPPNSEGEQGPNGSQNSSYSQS
Sequence of CDK9/Cyclin K (P50750 whole entry): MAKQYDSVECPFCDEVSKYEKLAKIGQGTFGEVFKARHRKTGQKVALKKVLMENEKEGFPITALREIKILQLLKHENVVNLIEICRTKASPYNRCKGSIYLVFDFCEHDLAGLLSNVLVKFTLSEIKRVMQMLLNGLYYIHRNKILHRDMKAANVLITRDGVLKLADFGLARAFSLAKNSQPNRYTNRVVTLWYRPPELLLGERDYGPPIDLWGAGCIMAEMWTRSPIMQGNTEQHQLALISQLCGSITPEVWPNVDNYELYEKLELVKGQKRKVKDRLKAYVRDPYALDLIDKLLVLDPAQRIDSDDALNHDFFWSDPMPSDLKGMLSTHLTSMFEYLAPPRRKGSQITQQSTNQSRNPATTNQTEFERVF
Sequence of CDK9/Cyclin K (O75909 whole entry partner): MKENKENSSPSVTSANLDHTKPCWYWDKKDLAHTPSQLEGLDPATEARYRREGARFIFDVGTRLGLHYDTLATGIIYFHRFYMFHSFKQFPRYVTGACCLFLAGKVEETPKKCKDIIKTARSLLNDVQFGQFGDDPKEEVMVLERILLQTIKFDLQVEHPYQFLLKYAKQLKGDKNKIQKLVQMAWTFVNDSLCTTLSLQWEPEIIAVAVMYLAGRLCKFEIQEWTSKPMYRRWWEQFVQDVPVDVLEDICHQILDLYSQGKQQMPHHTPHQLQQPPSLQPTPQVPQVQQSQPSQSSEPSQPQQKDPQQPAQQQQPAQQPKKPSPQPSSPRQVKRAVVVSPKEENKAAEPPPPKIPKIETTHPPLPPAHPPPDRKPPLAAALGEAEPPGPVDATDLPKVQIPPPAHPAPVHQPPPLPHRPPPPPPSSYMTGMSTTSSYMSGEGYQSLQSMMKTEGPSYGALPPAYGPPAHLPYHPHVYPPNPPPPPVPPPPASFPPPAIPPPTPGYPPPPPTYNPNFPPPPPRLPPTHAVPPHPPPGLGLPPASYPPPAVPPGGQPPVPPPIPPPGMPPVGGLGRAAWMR
Sequence of CDK3/Cyclin E1 (Q00526 whole entry): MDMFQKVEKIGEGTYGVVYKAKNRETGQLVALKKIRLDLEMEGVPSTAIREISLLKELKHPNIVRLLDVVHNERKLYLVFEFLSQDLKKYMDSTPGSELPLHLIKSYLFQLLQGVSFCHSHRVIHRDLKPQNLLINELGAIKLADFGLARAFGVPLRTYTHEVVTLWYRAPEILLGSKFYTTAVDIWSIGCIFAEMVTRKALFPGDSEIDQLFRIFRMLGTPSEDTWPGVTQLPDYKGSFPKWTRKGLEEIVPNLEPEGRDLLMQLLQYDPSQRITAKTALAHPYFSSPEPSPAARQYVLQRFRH
Sequence of CDK3/Cyclin E1 (P24864 whole entry partner): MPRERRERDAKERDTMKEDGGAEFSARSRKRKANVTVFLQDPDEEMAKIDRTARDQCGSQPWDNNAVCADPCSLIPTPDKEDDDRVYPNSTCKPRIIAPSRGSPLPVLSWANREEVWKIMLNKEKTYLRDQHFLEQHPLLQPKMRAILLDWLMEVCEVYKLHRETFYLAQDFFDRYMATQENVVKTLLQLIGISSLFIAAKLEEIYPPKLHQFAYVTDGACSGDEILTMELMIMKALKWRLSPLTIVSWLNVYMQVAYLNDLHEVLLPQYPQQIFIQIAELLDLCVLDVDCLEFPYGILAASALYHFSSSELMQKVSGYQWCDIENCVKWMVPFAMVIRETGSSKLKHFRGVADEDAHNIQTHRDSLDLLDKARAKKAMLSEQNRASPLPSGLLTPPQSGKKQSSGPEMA
Sequence of CDK8/Cyclin C (P49336 whole entry): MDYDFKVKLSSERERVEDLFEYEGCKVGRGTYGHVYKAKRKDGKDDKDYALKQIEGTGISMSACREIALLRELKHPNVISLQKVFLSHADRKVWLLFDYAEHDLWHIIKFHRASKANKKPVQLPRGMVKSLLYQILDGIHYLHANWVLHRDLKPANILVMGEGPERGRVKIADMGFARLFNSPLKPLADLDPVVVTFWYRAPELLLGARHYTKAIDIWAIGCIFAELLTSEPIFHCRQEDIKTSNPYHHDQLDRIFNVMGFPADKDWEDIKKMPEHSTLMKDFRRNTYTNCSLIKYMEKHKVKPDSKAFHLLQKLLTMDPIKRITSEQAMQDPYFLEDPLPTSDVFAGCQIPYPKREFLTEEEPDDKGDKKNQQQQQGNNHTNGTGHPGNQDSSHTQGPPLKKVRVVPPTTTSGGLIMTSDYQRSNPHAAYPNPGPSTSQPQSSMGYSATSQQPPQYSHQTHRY
Sequence of CDK8/Cyclin C (P24863 whole entry partner): as the sequence (P24863 whole entry partner) above
Sequence of CDK18/Cyclin Y (Q07002 whole entry): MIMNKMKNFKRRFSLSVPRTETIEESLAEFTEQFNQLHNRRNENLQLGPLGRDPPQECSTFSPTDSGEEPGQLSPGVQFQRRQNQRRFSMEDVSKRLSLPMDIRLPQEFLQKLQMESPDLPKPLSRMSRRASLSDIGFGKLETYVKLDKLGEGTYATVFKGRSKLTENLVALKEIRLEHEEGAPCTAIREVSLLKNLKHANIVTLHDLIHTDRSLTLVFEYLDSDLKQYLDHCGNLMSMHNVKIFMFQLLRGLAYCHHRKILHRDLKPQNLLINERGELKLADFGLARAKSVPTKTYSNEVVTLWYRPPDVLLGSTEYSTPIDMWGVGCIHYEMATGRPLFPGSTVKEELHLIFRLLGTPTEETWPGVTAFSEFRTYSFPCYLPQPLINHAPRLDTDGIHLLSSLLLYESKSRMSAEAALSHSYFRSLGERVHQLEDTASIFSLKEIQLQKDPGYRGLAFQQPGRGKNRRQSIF
Sequence of CDK18/Cyclin Y (Q8ND76 whole entry partner): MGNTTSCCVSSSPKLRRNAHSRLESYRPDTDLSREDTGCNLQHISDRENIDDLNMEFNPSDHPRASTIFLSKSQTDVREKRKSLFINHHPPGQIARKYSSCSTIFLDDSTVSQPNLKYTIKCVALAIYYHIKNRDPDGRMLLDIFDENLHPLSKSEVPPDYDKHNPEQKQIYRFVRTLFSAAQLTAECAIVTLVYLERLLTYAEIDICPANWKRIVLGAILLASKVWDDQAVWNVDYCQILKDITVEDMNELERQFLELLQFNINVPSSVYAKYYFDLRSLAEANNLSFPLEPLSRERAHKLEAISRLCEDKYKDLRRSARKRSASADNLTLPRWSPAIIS
Sequence of CDK16/Cyclin Y (Q00536 whole entry): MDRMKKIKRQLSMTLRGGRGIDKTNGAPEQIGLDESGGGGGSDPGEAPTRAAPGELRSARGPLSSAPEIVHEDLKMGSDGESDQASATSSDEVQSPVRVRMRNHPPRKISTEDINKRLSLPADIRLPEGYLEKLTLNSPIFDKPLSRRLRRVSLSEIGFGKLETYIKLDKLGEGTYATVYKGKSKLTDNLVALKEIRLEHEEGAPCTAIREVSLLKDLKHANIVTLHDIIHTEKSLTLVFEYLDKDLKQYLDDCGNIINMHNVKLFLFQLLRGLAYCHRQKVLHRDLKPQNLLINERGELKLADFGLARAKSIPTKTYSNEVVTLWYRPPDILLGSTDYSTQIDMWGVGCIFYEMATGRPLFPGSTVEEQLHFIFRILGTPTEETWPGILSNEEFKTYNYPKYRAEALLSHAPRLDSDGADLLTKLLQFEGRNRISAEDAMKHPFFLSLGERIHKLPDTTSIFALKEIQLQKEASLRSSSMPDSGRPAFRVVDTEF
Sequence of CDK16/Cyclin Y (Q8ND76 whole entry partner): as the sequence (Q8ND76 whole entry partner) above
Sequence of CDK1/Cyclin E1 (P06493 whole entry): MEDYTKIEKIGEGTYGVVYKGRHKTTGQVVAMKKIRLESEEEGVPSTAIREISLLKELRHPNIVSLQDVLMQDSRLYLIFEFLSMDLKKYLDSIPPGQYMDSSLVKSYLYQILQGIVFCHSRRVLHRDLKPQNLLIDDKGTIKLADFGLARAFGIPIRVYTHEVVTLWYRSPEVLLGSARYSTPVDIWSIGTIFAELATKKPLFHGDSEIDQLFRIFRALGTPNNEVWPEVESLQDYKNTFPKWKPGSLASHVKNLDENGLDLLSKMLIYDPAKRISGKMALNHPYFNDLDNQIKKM
Sequence of CDK1/Cyclin E1 (P24864 whole entry partner): as the sequence (P24864 whole entry partner) above

SMILES: CC(C)c1c2cc(-c3ccnc(N[C@H]4CC[C@H](NC5CCOCC5)CC4)n3)ccc2nn1C [LY2857785]
- Inhibition at 10µM (%) (CDK1/Cyclin E1; average): 76.5%
- Inhibition at 10µM (%) (CDK1/Cyclin E1; experiment 1): 76.1%
- Inhibition at 10µM (%) (CDK1/Cyclin E1; experiment 2): 76.9%
- Inhibition at 10µM (%) (CDK2/Cyclin E1; average): 85.9%
- pIC50 (CDK2/Cyclin E1; average (± SEM where n=3)): 6.18
- Inhibition at 10µM (%) (CDK2/Cyclin E1; experiment 1): 85.1%
- pIC50 (CDK2/Cyclin E1; experiment 1): 6.14
- Inhibition at 10µM (%) (CDK2/Cyclin E1; experiment 2): 86.7%
- pIC50 (CDK2/Cyclin E1; experiment 2): 6.23
- Inhibition at 10µM (%) (CDK3/Cyclin E1; average): 89.1%
- Inhibition at 10µM (%) (CDK3/Cyclin E1; experiment 1): 89.3%
- Inhibition at 10µM (%) (CDK3/Cyclin E1; experiment 2): 88.9%
- Inhibition at 10µM (%) (CDK4/Cyclin D1; average): 97.1%
- pIC50 (CDK4/Cyclin D1; average (± SEM where n=3)): 7.40
- Inhibition at 10µM (%) (CDK4/Cyclin D1; experiment 1): 97.8%
- pIC50 (CDK4/Cyclin D1; experiment 1): 7.36
- Inhibition at 10µM (%) (CDK4/Cyclin D1; experiment 2): 96.5%
- pIC50 (CDK4/Cyclin D1; experiment 2): 7.44
- Inhibition at 10µM (%) (CDK5/CDK5R1; average): 68.7%
- Inhibition at 10µM (%) (CDK5/CDK5R1; experiment 1): 68.7%
- Inhibition at 10µM (%) (CDK5/CDK5R1; experiment 2): 68.7%
- Inhibition at 10µM (%) (CDK6/Cyclin D1; average): 96.5%
- pIC50 (CDK6/Cyclin D1; average (± SEM where n=3)): 6.96
- Inhibition at 10µM (%) (CDK6/Cyclin D1; experiment 1): 96.6%
- pIC50 (CDK6/Cyclin D1; experiment 1): 6.91
- Inhibition at 10µM (%) (CDK6/Cyclin D1; experiment 2): 96.3%
- pIC50 (CDK6/Cyclin D1; experiment 2): 7.01
- Inhibition at 10µM (%) (CDK7; average): 92.6%
- pIC50 (CDK7; average (± SEM where n=3)): 7.51
- Inhibition at 10µM (%) (CDK7; experiment 1): 91.7%
- pIC50 (CDK7; experiment 1): 7.55
- Inhibition at 10µM (%) (CDK7; experiment 2): 93.4%
- pIC50 (CDK7; experiment 2): 7.47
- Inhibition at 10µM (%) (CDK8/Cyclin C; average): 83.7%
- Inhibition at 10µM (%) (CDK8/Cyclin C; experiment 1): 88.4%
- Inhibition at 10µM (%) (CDK8/Cyclin C; experiment 2): 79.0%
- Inhibition at 10µM (%) (CDK9/Cyclin K; average): 97.9%
- Inhibition at 10µM (%) (CDK9/Cyclin K; experiment 1): 98.0%
- Inhibition at 10µM (%) (CDK9/Cyclin K; experiment 2): 97.9%
- Inhibition at 10µM (%) (CDK11A/Cyclin L2; average): 95.5%
- pIC50 (CDK11A/Cyclin L2; average (± SEM where n=3)): 7.77
- Inhibition at 10µM (%) (CDK11A/Cyclin L2; experiment 1): 95.3%
- pIC50 (CDK11A/Cyclin L2; experiment 1): 8.00
- Inhibition at 10µM (%) (CDK11A/Cyclin L2; experiment 2): 95.7%
- pIC50 (CDK11A/Cyclin L2; experiment 2): 7.64
- Inhibition at 10µM (%) (CDK11B/Cyclin L2; average): 94.8%
- pIC50 (CDK11B/Cyclin L2; average (± SEM where n=3)): 7.62
- Inhibition at 10µM (%) (CDK11B/Cyclin L2; experiment 1): 95.7%
- pIC50 (CDK11B/Cyclin L2; experiment 1): 7.68
- Inhibition at 10µM (%) (CDK11B/Cyclin L2; experiment 2): 93.9%
- pIC50 (CDK11B/Cyclin L2; experiment 2): 7.57
- Inhibition at 10µM (%) (CDK14/Cyclin Y; average): 90.6%
- pIC50 (CDK14/Cyclin Y; average (± SEM where n=3)): 6.29
- Inhibition at 10µM (%) (CDK14/Cyclin Y; experiment 1): 90.3%
- pIC50 (CDK14/Cyclin Y; experiment 1): 6.41
- Inhibition at 10µM (%) (CDK14/Cyclin Y; experiment 2): 90.9%
- pIC50 (CDK14/Cyclin Y; experiment 2): 6.20
- Inhibition at 10µM (%) (CDK15/Cyclin Y; CDK15/Y, average): 93.6%
- pIC50 (CDK15/Cyclin Y; CDK15/Y, average (± SEM where n=3), read-out: IC50): 6.49
- Inhibition at 10µM (%) (CDK15/Cyclin Y; CDK15/Y, experiment 1): 93.4%
- pIC50 (CDK15/Cyclin Y; CDK15/Y, experiment 1, read-out: IC50): 6.49
- Inhibition at 10µM (%) (CDK15/Cyclin Y; CDK15/Y, experiment 2): 93.9%
- pIC50 (CDK15/Cyclin Y; CDK15/Y, experiment 2, read-out: IC50): 6.49
- pIC50 (CDK15/Cyclin Y; live HEK-293, 2 h, mean ± S.E.M. (n=3) or mean (n=2), read-out: IC50 for CDK/cyclin complexes, CDK15/Y): 6.49
- pIC50 (CDK16/Cyclin Y; average (± SEM where n=3)): 6.80
- Inhibition at 10µM (%) (CDK16/Cyclin Y; experiment 1): 82.9%
- pIC50 (CDK16/Cyclin Y; experiment 1): 6.66
- Inhibition at 10µM (%) (CDK16/Cyclin Y; experiment 2): 91.1%
- pIC50 (CDK16/Cyclin Y; experiment 2): 7.04
- Inhibition at 10µM (%) (CDK17/Cyclin Y; average): 90.5%
- pIC50 (CDK17/Cyclin Y; average (± SEM where n=3)): 7.39
- Inhibition at 10µM (%) (CDK17/Cyclin Y; experiment 1): 89.7%
- pIC50 (CDK17/Cyclin Y; experiment 1): 7.82
- Inhibition at 10µM (%) (CDK17/Cyclin Y; experiment 2): 91.4%
- pIC50 (CDK17/Cyclin Y; experiment 2): 7.17
- Inhibition at 10µM (%) (CDK18/Cyclin Y; average): 96.0%
- pIC50 (CDK18/Cyclin Y; average (± SEM where n=3)): 6.54
- Inhibition at 10µM (%) (CDK18/Cyclin Y; experiment 1): 91.6%
- pIC50 (CDK18/Cyclin Y; experiment 1): 6.69
- Inhibition at 10µM (%) (CDK18/Cyclin Y; experiment 2): 100.3%
- pIC50 (CDK18/Cyclin Y; experiment 2): 6.43
- Inhibition at 10µM (%) (CDK20/Cyclin H; experiment 1): 39.4%
- Inhibition at 10µM (%) (CDK20/Cyclin H; experiment 2): 39.8%
- Inhibition at 10µM (%) (CDK19/Cyclin C; average): 82.9%
- Inhibition at 10µM (%) (CDK19/Cyclin C; experiment 1): 90.1%
- Inhibition at 10µM (%) (CDK19/Cyclin C; experiment 2): 75.7%
- Inhibition at 10µM (%) (CDK10/Cyclin L2; average): 80.7%
- pIC50 (CDK10/Cyclin L2; average (± SEM where n=3)): 6.22
- pIC50 (CDK10/Cyclin L2; experiment 1): 6.31
- Inhibition at 10µM (%) (CDK10/Cyclin L2; experiment 1): 81.9%
- pIC50 (CDK10/Cyclin L2; experiment 2): 6.15
- Inhibition at 10µM (%) (CDK10/Cyclin L2; experiment 2): 79.4%

From publication PMC7265341, “Quantifying CDK inhibitor selectivity in live cells” (Nature Communications, 2020)
